# Assay results: PubChem BioAssay AID330 (DTP/NCI, 2004)
# “And” between values parts separate entries of the source, which are not always exact repeats. Equal entries are not always repeated. Toxic doses and inconclusive results are not listed.
# System: P388 leukemia ip, CD2F1 mice, survival T/C
# Assay: NCI In Vivo Anticancer Drug Screen. Data for tumor model P388 Leukemia (intraperitoneal) in CD2F1 (CDF1) mice
# Conditions: endpoint: median survival time, higher = longer survival
# Outline: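 Mice carrying the transplanted tumor received test compound or vehicle. Survival was recorded in each group, and the value is the treated-group measurement divided by that of the vehicle-treated control group.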
smiles,measurement,setting,value
Cc1c2ccncc2c(C)c2c1[nH]c1ccccc12,T/C,"dose: 0.31 mg/kg/injection, schedule: Q04DX003 (iv), vehicle: water",99 % of control
same,T/C,"dose: 0.63 mg/kg/injection, schedule: Q04DX003 (iv), vehicle: water",107 % of control
same,T/C,"dose: 1.25 mg/kg/injection, schedule: Q04DX003 (iv), vehicle: water",99 % of control
same,T/C,"dose: 1.56 mg/kg/injection, schedule: Q04DX003 (ip), vehicle: distilled water + Tween-80",92 % of control
same,T/C,"dose: 2.5 mg/kg/injection, schedule: Q04DX003 (ip), vehicle: water",100 % of control
same,T/C,"dose: 2.5 mg/kg/injection, schedule: Q04DX003 (iv), vehicle: distilled water + Tween-80",107 % of control
same,T/C,"dose: 2.5 mg/kg/injection, schedule: Q04DX003 (iv), vehicle: water",94 % of control
same,T/C,"dose: 3.12 mg/kg/injection, schedule: Q04DX003 (ip), vehicle: distilled water + Tween-80",100 % of control
same,T/C,"dose: 3.13 mg/kg/injection, schedule: Q01DX009 (ip), vehicle: saline with Tween-80",154 % of control
same,T/C,"dose: 3.89 mg/kg/injection, schedule: Q04DX003 (ip), vehicle: clinical formulation",111 % of control
same,T/C,"dose: 5.0 mg/kg/injection, schedule: Q01DX005 (ip), vehicle: Klucel (hydroxypropylcellulose) (HPC)",156 % of control
same,T/C,"dose: 5.0 mg/kg/injection, schedule: Q04DX003 (ip), vehicle: distilled water + Tween-80",110 % of control
same,T/C,"dose: 5.0 mg/kg/injection, schedule: Q04DX003 (ip), vehicle: water",106 % of control and 110 % of control
same,T/C,"dose: 5.0 mg/kg/injection, schedule: Q04DX003 (iv), vehicle: distilled water + Tween-80",100 % of control
same,T/C,"dose: 5.0 mg/kg/injection, schedule: Q04DX003 (iv), vehicle: water",108 % of control
same,T/C,"dose: 6.25 mg/kg/injection, schedule: Q01DX009 (ip), vehicle: saline with Tween-80",181 % of control
same,T/C,"dose: 6.25 mg/kg/injection, schedule: Q04DX003 (ip), vehicle: clinical formulation",118 % of control and 119 % of control
same,T/C,"dose: 6.25 mg/kg/injection, schedule: Q04DX003 (ip), vehicle: distilled water + Tween-80",100 % of control and 121 % of control
same,T/C,"dose: 6.25 mg/kg/injection, schedule: Q04DX003 (ip), vehicle: saline with Tween-80",161 % of control
same,T/C,"dose: 6.25 mg/kg/injection, schedule: Q04DX003 (ip), vehicle: saline",112 % of control
same,T/C,"dose: 6.48 mg/kg/injection, schedule: Q04DX003 (ip), vehicle: clinical formulation",108 % of control
same,T/C,"dose: 8.0 mg/kg/injection, schedule: Q01DX005 (ip), vehicle: saline with Tween-80",160 % of control
same,T/C,"dose: 8.0 mg/kg/injection, schedule: Q01DX005 (iv), vehicle: saline with Tween-80",115 % of control
same,T/C,"dose: 10.0 mg/kg/injection, schedule: Q01DX005 (ip), vehicle: Klucel (hydroxypropylcellulose) (HPC)",153 % of control
same,T/C,"dose: 10.0 mg/kg/injection, schedule: Q01DX005 (ip), vehicle: saline with Tween-80",166 % of control
same,T/C,"dose: 10.0 mg/kg/injection, schedule: Q04DX003 (ip), vehicle: distilled water + Tween-80",118 % of control
same,T/C,"dose: 10.0 mg/kg/injection, schedule: Q04DX003 (ip), vehicle: water",112 % of control
same,T/C,"dose: 10.0 mg/kg/injection, schedule: Q04DX003 (iv), vehicle: distilled water + Tween-80",124 % of control
same,T/C,"dose: 10.0 mg/kg/injection, schedule: Q04DX003 (iv), vehicle: water",112 % of control
same,T/C,"dose: 10.8 mg/kg/injection, schedule: Q04DX003 (ip), vehicle: clinical formulation",110 % of control
same,T/C,"dose: 12.5 mg/kg/injection, schedule: Q01DX009 (ip), vehicle: saline with Tween-80",195 % of control and 204 % of control
same,T/C,"dose: 12.5 mg/kg/injection, schedule: Q04DX002 (ip), vehicle: Klucel (hydroxypropylcellulose) (HPC)",150 % of control
same,T/C,"dose: 12.5 mg/kg/injection, schedule: Q04DX003 (ip), vehicle: alkali diluted with water",164 % of control
same,T/C,"dose: 13.0 mg/kg/injection, schedule: Q04DX003 (ip), vehicle: water",123 % of control
same,T/C,"dose: 16.0 mg/kg/injection, schedule: Q01DX005 (ip), vehicle: saline with Tween-80",189 % of control
same,T/C,"dose: 16.0 mg/kg/injection, schedule: Q01DX005 (iv), vehicle: saline with Tween-80",117 % of control
same,T/C,"dose: 16.0 mg/kg/injection, schedule: Q01DX005 (oral), vehicle: saline with Tween-80",155 % of control
same,T/C,"dose: 18.0 mg/kg/injection, schedule: Q04DX003 (ip), vehicle: clinical formulation",110 % of control
same,T/C,"dose: 20.0 mg/kg/injection, schedule: Q01DX005 (ip), vehicle: Klucel (hydroxypropylcellulose) (HPC)",176 % of control and 177 % of control
same,T/C,"dose: 20.0 mg/kg/injection, schedule: Q01DX005 (ip), vehicle: saline with Tween-80",200 % of control
same,T/C,"dose: 20.0 mg/kg/injection, schedule: Q01DX005 (iv), vehicle: saline with Tween-80",111 % of control
same,T/C,"dose: 20.0 mg/kg/injection, schedule: Q04DX003 (ip), vehicle: distilled water + Tween-80",157 % of control
same,T/C,"dose: 20.0 mg/kg/injection, schedule: Q04DX003 (ip), vehicle: water",163 % of control
same,T/C,"dose: 21.6 mg/kg/injection, schedule: Q04DX002 (ip), vehicle: Klucel (hydroxypropylcellulose) (HPC)",171 % of control
same,T/C,"dose: 21.6 mg/kg/injection, schedule: Q04DX003 (ip), vehicle: water",150 % of control
same,T/C,"dose: 25.0 mg/kg/injection, schedule: Q01DX009 (ip), vehicle: saline with Tween-80",204 % of control
same,T/C,"dose: 25.0 mg/kg/injection, schedule: Q04DX002 (ip), vehicle: Klucel (hydroxypropylcellulose) (HPC)",153 % of control
same,T/C,"dose: 25.0 mg/kg/injection, schedule: Q04DX003 (ip), vehicle: alkali diluted with water",183 % of control
same,T/C,"dose: 25.0 mg/kg/injection, schedule: Q04DX003 (ip), vehicle: clinical formulation",178 % of control and 180 % of control
same,T/C,"dose: 25.0 mg/kg/injection, schedule: Q04DX003 (ip), vehicle: water",163 % of control
same,T/C,"dose: 30.0 mg/kg/injection, schedule: Q04DX003 (ip), vehicle: clinical formulation",198 % of control
same,T/C,"dose: 32.0 mg/kg/injection, schedule: Q01DX005 (ip), vehicle: saline with Tween-80",207 % of control
same,T/C,"dose: 32.0 mg/kg/injection, schedule: Q01DX005 (iv), vehicle: saline with Tween-80",162 % of control
same,T/C,"dose: 32.0 mg/kg/injection, schedule: Q01DX005 (oral), vehicle: saline with Tween-80",186 % of control
same,T/C,"dose: 36.0 mg/kg/injection, schedule: Q04DX002 (ip), vehicle: Klucel (hydroxypropylcellulose) (HPC)",191 % of control
same,T/C,"dose: 36.0 mg/kg/injection, schedule: Q04DX002 (ip), vehicle: saline with Tween-80",158 % of control
same,T/C,"dose: 36.0 mg/kg/injection, schedule: Q04DX003 (ip), vehicle: water",176 % of control
same,T/C,"dose: 40.0 mg/kg/injection, schedule: Q01DX005 (ip), vehicle: Klucel (hydroxypropylcellulose) (HPC)",202 % of control and 90 % of control
same,T/C,"dose: 40.0 mg/kg/injection, schedule: Q01DX005 (ip), vehicle: saline with Tween-80",227 % of control
same,T/C,"dose: 40.0 mg/kg/injection, schedule: Q04DX003 (ip), vehicle: distilled water + Tween-80",193 % of control
same,T/C,"dose: 40.0 mg/kg/injection, schedule: Q04DX003 (ip), vehicle: water",117 % of control
same,T/C,"dose: 43.2 mg/kg/injection, schedule: Q04DX002 (ip), vehicle: saline with Tween-80",176 % of control
same,T/C,"dose: 50.0 mg/kg/injection, schedule: Q01DX009 (ip), vehicle: saline with Tween-80",86 % of control
same,T/C,"dose: 50.0 mg/kg/injection, schedule: Q04DX002 (ip), vehicle: Klucel (hydroxypropylcellulose) (HPC)",168 % of control
same,T/C,"dose: 50.0 mg/kg/injection, schedule: Q04DX003 (ip), vehicle: alkali diluted with water",221 % of control
same,T/C,"dose: 50.0 mg/kg/injection, schedule: Q04DX003 (ip), vehicle: clinical formulation",181 % of control
same,T/C,"dose: 50.0 mg/kg/injection, schedule: Q04DX003 (ip), vehicle: water",167 % of control
same,T/C,"dose: 60.0 mg/kg/injection, schedule: Q04DX002 (ip), vehicle: Klucel (hydroxypropylcellulose) (HPC)",198 % of control
same,T/C,"dose: 60.0 mg/kg/injection, schedule: Q04DX002 (ip), vehicle: saline with Tween-80",161 % of control
same,T/C,"dose: 60.0 mg/kg/injection, schedule: Q04DX003 (ip), vehicle: water",219 % of control
same,T/C,"dose: 72.0 mg/kg/injection, schedule: Q04DX002 (ip), vehicle: saline with Tween-80",166 % of control and 199 % of control
same,T/C,"dose: 80.0 mg/kg/injection, schedule: Q04DX003 (ip), vehicle: distilled water + Tween-80",190 % of control and 254 % of control
same,T/C,"dose: 90.0 mg/kg/injection, schedule: Q04DX002 (ip), vehicle: saline with Tween-80",185 % of control and 190 % of control
same,T/C,"dose: 100.0 mg/kg/injection, schedule: Q04DX002 (ip), vehicle: Klucel (hydroxypropylcellulose) (HPC)",220 % of control and 230 % of control
same,T/C,"dose: 100.0 mg/kg/injection, schedule: Q04DX003 (ip), vehicle: alkali diluted with water",219 % of control
same,T/C,"dose: 100.0 mg/kg/injection, schedule: Q04DX003 (ip), vehicle: water",203 % of control
same,T/C,"dose: 120.0 mg/kg/injection, schedule: Q04DX002 (ip), vehicle: saline with Tween-80",157 % of control and 218 % of control
same,T/C,"dose: 134.0 mg/kg/injection, schedule: Q04DX002 (ip), vehicle: saline with Tween-80",211 % of control and 214 % of control
same,T/C,"dose: 167.0 mg/kg/injection, schedule: Q04DX002 (ip), vehicle: Klucel (hydroxypropylcellulose) (HPC)",207 % of control
same,T/C,"dose: 167.0 mg/kg/injection, schedule: Q04DX002 (ip), vehicle: saline with Tween-80",158 % of control
same,T/C,"dose: 200.0 mg/kg/injection, schedule: Q04DX002 (ip), vehicle: Klucel (hydroxypropylcellulose) (HPC)",88 % of control
same,T/C,"dose: 200.0 mg/kg/injection, schedule: Q04DX003 (ip), vehicle: alkali diluted with water",100 % of control
same,T/C,"dose: 300.0 mg/kg/injection, schedule: Q04DX002 (ip), vehicle: saline with Tween-80",165 % of control
